From patent publication US20120283303A1, “USE OF N-AMINOIMIDAZOLE CYTOPROTECTIVE COMPOUNDS FOR TREATING CELL DEATH AND/OR GSK-3 MEDIATED DISEASES” (K.U.LEUVEN RESEARCH AND DEVELOPMENT, priority 2006, published 2012)
Values after ≈ are worked out from the molar mass of the structure shown.

How the values were obtained:
[1] = test system: motor neurons; test: Basal survival of motor neurons in co-culture on glial feeder layer; type: cell-based, Wistar rats; conditions: FIG. 1A
Procedure: Cell cultures: Primary motor neuron cultures were prepared from Wistar rats as follows. Spinal cords were dissected from E14 embryos and collected in Hanks' Balanced Salt Solution (HBSS; Gibco Invitrogen, Grand Island, N.Y). Ventral cords were minced and digested for 15 minutes at 37° C. in 0.05% trypsin in HBSS. The solution was then replaced with medium A (L15 (Sigma, St.-Louis, Mo.) supplemented with glucose, progesterone, insulin, putrescine, conalbumin, sodium selenite, penicillin, streptomycin and 2% horse serum) containing 0.4% BSA and 20 μg/ml DNase and the tissue was dissociated by trituration. The resulting single cell suspension was layered on a 6.8% (weight/volume in L15) optiprep cushion (one spinal cord per tube) and centrifuged at 500 g for 15 minutes. […] To remove debris, both fractions were resuspended in medium A and centrifuged for 20 minutes at 75 g on a 4% BSA cushion. For co-cultures, 30,000 motor neurons of the F1 fraction were seeded on a glial feeder layer. Glial feeder layers were prepared by plating F2 cells in 35 mm dishes. After 4 weeks in vitro, cell division was halted by exposure to 10^−5 M cytosine arabinoside. […]
Exposure experiments: After 1 day in culture NAIM was added to the culture medium at different concentrations. […] In the experiment in which the effect of fresh medium was evaluated, the culture medium was replaced in total every day. […]

[2] = target: T1, p300 (H4 peptide) (Homo sapiens, UniProt Q09472); test: Radiometric enzyme activity assay, p300 (H4 peptide); type: biochemical; conditions: 5 μg/ml NR-818, 10 μM ATP
T1 construct: purchased Upstate Biotechnology
T1 sequence (Q09472 whole entry): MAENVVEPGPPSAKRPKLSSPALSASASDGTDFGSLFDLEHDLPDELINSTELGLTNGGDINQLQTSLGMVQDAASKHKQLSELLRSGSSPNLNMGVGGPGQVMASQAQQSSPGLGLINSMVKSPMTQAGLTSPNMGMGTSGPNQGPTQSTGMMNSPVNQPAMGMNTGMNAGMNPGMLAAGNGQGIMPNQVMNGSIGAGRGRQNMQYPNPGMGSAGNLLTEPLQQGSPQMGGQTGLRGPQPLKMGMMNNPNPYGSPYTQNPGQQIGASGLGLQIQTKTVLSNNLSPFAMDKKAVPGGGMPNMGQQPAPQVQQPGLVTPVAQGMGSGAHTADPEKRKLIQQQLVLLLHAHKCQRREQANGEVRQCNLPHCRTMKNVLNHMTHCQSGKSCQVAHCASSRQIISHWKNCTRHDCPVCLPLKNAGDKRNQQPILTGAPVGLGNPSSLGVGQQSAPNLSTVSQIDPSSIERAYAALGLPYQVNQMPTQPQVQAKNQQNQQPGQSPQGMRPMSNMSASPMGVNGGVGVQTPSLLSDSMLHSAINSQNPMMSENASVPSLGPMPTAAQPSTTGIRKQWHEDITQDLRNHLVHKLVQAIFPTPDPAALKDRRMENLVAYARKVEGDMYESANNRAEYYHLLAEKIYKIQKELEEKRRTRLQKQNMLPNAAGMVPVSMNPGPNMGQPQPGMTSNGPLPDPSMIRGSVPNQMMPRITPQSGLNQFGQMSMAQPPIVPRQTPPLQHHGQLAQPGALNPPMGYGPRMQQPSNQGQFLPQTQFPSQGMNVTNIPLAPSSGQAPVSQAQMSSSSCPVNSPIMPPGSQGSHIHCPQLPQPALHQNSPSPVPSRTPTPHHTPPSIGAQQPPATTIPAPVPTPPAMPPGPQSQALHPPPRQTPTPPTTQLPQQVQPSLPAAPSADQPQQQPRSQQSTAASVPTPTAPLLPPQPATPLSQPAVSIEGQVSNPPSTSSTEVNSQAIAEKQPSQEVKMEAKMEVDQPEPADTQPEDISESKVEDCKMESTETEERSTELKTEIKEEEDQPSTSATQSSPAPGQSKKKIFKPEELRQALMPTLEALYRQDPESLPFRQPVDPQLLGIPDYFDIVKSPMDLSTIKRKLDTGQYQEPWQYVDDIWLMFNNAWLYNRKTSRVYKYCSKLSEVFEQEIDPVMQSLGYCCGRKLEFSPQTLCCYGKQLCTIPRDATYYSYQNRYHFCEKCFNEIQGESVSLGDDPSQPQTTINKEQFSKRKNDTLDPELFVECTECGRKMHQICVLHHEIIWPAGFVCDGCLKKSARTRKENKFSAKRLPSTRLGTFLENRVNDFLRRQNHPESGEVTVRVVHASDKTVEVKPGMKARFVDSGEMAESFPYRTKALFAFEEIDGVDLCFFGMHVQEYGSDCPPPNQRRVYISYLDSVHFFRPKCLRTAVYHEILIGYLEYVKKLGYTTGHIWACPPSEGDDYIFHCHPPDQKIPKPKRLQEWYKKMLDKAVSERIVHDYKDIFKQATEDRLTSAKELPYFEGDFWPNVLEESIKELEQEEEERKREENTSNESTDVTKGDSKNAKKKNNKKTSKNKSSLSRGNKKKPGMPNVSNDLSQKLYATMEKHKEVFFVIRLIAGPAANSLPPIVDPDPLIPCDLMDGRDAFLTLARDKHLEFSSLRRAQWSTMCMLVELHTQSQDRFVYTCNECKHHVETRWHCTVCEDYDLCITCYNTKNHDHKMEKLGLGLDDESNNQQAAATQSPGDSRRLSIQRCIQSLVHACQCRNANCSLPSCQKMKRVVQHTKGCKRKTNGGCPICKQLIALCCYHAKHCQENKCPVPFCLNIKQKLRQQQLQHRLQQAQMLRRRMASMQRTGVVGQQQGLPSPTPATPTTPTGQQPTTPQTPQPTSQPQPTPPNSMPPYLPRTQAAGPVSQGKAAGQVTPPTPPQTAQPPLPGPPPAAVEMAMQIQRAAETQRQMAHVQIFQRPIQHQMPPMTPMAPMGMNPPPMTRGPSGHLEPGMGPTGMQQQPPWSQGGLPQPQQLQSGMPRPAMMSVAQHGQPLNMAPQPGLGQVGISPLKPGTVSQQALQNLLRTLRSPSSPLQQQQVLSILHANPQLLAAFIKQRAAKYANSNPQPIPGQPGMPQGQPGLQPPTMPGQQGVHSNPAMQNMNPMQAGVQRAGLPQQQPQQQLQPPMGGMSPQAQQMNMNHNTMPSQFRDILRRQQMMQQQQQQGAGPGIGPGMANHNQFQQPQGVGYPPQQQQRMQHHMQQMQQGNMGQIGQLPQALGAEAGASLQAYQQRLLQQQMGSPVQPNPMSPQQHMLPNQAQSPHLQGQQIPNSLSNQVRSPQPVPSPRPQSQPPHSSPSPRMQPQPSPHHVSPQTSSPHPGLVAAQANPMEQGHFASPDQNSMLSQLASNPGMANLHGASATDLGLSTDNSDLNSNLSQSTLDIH
Procedure: (§1) GSK-3 were assayed for their ability to phosphorylate the appropriate peptide/protein substrate in the presence of 5 μg/ml NR-818 and 10 μM ATP. Using the direct radiometric approach, kinase activities were determined and expressed as % activity compared to the untreated control (Upstate Biotechnology, Lake Placid, N.Y.). Activities are given as the mean of duplicate determinations relative to control incubations in which the inhibitor was substituted with DMSO. In the following table 1 providing results for NR818, the following abbreviations are used: • CDK, cyclin-dependent kinase; • CK, casein kinase; • eEF-2K, eukaryotic elongation factor-2 kinase; • JNK, c-Jun N-terminal kinase; • MAPK, mitogen-activated protein kinase; • PKC, protein kinase C; and • PI 3-kinase, phosphatidylinositol 3-kinase.

[3] = test system: motor neurons; test: Basal survival of motor neurons in monoculture; type: cell-based, Wistar rats
Procedure: Cell cultures: Primary motor neuron cultures were prepared from Wistar rats as follows. Spinal cords were dissected from E14 embryos and collected in Hanks' Balanced Salt Solution (HBSS; Gibco Invitrogen, Grand Island, N.Y). Ventral cords were minced and digested for 15 minutes at 37° C. in 0.05% trypsin in HBSS. The solution was then replaced with medium A (L15 (Sigma, St.-Louis, Mo.) supplemented with glucose, progesterone, insulin, putrescine, conalbumin, sodium selenite, penicillin, streptomycin and 2% horse serum) containing 0.4% BSA and 20 μg/ml DNase and the tissue was dissociated by trituration. The resulting single cell suspension was layered on a 6.8% (weight/volume in L15) optiprep cushion (one spinal cord per tube) and centrifuged at 500 g for 15 minutes. […] To remove debris, both fractions were resuspended in medium A and centrifuged for 20 minutes at 75 g on a 4% BSA cushion. For co-cultures, 30,000 motor neurons of the F1 fraction were seeded on a glial feeder layer. Glial feeder layers were prepared by plating F2 cells in 35 mm dishes. After 4 weeks in vitro, cell division was halted by exposure to 10^−5 M cytosine arabinoside. For monocultures, 45,000 motor neurons were seeded in 35 mm dishes.
Immunocytochemistry: Cell cultures were washed and fixed in cooled paraformadehyde 4% for 30 minutes. After three washes, cells were incubated in blocking solution (10% normal serum in phosphate buffered saline (PBS)) for 1 hour. Monoclonal anti-SMI-32 ( 1/10,000, Sternberger Monoclonal Inc., Luthersville, Md.) and goat anti-GFAP ( 1/10,000, Dako, Denmark) were incubated overnight in 1% normal serum in PBS. Secondary antibodies used were goat anti-mouse IgG Alaxa555 ( 1/500, Molecular Probes, Eugene, Oreg.) and donkey anti-goat FITC ( 1/500, Jackson ImmunoResearch, West Grove, Pa.).
Exposure experiments: After 1 day in culture NAIM was added to the culture medium at different concentrations. All other compounds were also added after 24 hours in culture. When culture medium was replaced, only half of the medium was taken and replaced by fresh medium, in which all different compounds were substituted as to maintain the initial concentration. In the experiment in which the effect of fresh medium was evaluated, the culture medium was replaced in total every day. […]
In order to determine whether the effect of NAIM was mediated through the secretion of a soluble factor in the medium by the underlying astroglial feeder layer, we prepared monocultures in which only motor neurons were present. […] In order to determine whether the protective effect of the compound was dose-dependent, we conducted a dose-response study, in which cultures were treated with different concentrations of NAIM from day 1 off and cell survival was assessed on day 5.

[4] = target: T2, p300 (H3 peptide) (Homo sapiens, UniProt Q09472); test: Radiometric enzyme activity assay, p300 (H3 peptide); type: biochemical; conditions: 5 μg/ml NR-818, 10 μM ATP
T2 construct: purchased Upstate Biotechnology
T2 sequence (Q09472 whole entry): as above
Procedure: as §1

[5] = target: T3, GSK-3α (Homo sapiens, UniProt P49840); test: Radiometric kinase activity assay; type: biochemical; conditions: GSK-3α; 5 μg/ml NR-818, 10 μM ATP
T3 construct: purchased Upstate Biotechnology
T3 sequence (P49840 whole entry): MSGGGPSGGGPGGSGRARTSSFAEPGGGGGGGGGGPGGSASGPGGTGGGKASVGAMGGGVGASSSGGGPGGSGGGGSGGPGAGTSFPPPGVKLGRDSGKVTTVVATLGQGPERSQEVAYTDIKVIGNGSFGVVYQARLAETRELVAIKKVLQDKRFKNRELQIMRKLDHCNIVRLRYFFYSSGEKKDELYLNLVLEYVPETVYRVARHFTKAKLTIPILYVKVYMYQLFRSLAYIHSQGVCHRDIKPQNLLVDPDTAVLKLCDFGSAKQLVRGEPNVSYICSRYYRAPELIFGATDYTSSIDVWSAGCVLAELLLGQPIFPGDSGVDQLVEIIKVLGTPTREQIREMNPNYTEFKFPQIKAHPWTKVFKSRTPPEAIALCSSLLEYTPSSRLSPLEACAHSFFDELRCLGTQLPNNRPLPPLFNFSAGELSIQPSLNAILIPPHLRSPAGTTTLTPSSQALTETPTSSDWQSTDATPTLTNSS
Procedure: as §1
(§2) By using this experimental set-up, the inhibiting activity of NR953 on GSK-3 is also tested.

[6] = target: T4, GSK-3β (Homo sapiens, UniProt P49841); test: Radiometric kinase activity assay; type: biochemical; conditions: GSK-3β; 5 μg/ml NR-818, 10 μM ATP
T4 construct: purchased Upstate Biotechnology
T4 sequence (P49841 whole entry): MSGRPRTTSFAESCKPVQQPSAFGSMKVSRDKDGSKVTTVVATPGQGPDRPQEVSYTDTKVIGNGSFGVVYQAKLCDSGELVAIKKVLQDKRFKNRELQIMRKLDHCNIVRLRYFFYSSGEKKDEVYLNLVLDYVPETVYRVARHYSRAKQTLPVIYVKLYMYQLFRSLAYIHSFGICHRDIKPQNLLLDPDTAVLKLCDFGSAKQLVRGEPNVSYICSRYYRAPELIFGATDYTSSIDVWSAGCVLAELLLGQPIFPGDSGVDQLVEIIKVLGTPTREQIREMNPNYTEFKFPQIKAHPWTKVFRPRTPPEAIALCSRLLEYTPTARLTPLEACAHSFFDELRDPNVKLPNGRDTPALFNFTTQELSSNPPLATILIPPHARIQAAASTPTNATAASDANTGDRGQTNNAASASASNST
Procedure: as §1, §2

[7] = test system: M17-TAU P301L cells; test: TAU cytotoxicity (LDH leakage) in retinoic acid incubated M17-TAU P301L cells; type: cell-based, human; conditions: Homo sapiens, 168 h, reduction of LDH activity of retinoic acid incubated M17-TAU P301L cells, 7 days; read-out: IC50
Excerpt: An TAU expression plasmid was constructed by sub-cloning the cDNA of human TAU-P301L (encoding for TAU with proline 301 substituted by a leucine residue) into mammalian expression vector pcDNA3.1 resulting in plasmid pcDNA3.1-TAU P301L. Plasmids pcDNA3.1 and pcDNA3.1-TAU P301L were transfected to human neuroblastoma cells ([…]; ATCC No. CRL-2267) and independent clonal lines with the plasmids stably integrated into the genome were selected. […] Expression of the TAU P301L genes in the cell lines was confirmed by Western analysis.
In degenerated or dead cells, lactate dehydrogenase (LDH) is leaked out of the cells into the extracellular environment due to a loss of plasma-membrane integrity. This principle was used to determine cytotoxicity by quantifying the level of leaked LDH into the growth medium.
The detailed method for determining TAU cytotoxicity was as follows: From appropriate precultures of M17-3.1 and M17-TAU(P301L) cells were seeded at 2500 cells/cm2 in Optimem Reduced Serum without phenol red (Gibco, Cat. 31985-047) supplemented with 1% fetal calf serum, 1 mM sodium pyruvate, 1× non-essential amino acids, 500 μg/ml G418 0.5× antibiotic/antimycotic. After 3 hours of incubation at 37° C./5% CO2 1 volume of Optimem Reduced Serum (same as described above; except without fetal calf serum) supplemented with 2.5 μM retinoic acid (RA) was added. The cells were further incubated for 7 days. Subsequently, LDH activity was determined using Promega Cytotox 96 Non-Radioactive cytotoxicity assay, (Cat. G1780) according the supplier's instructions.
The M17-TAU P301L cell line made it possible to assess the ability of the compounds of this invention to counteract TAU cytotoxicity. […] Potency of the relevant compounds was determined by testing them at different concentrations ranging from non-effective (thus at a relatively low concentration) to an effective concentration for their ability to reduce LDH activity of retinoic acid incubated M17-TAU P301L cells.

Which results are given for `Cc1nc(S)n(Nc2cccc3ccccc23)c1-c1ccccc1` [HER/NR818, 4-Methyl-1-(naphthalen-1-ylamino)-5-phenyl-1,3-dihydro-imidazole-2-thione]?
basal survival of motor neurons [1]: significant increase in the basal survival; Activity (% of control) [2]: 100 % of control; effect of daily medium replacement on protective properties ([3]; medium replaced every day, FIG. 3): no effect on the protective properties; basal survival of motor neurons ([3]; monoculture, FIG. 1B): significant increase of the basal survival; protective effect in combination with IL-2, IL-2-receptor blocking antibody or GM-CSF ([3]; monoculture, survival on day 5, FIG. 4): not influenced by either of the added compounds; optimal concentration for motor neuron survival ([3]; monocultures, dose-response, treated from day 1, survival assessed on day 5, FIG. 2): 1 µg/mL; Activity (% of control) [4]: 88 % of control; Activity (% of control) [5]: 70 % of control; Activity (% of control) [6]: 65 % of control; IC50 [7]: 0.013 µg/mL (≈ 0.0392 µM)
